From patent US20040063790A1, “Methods for inhibition of angiogenesis” (The Scripps Research Institute, priority 1996, published 2004) come the findings set out here.

Where two headings read alike, the source gives them in different places. Where a SMILES comes first, the peptide text is derived from it. [ ]: non-standard residue; d: D form.

The target of one series is T1, αvβ3 (Homo sapiens, UniProt P05106+P06756).
T1 construct: selected purified integrins were separately immobilized in Titertek microtiter wells
Kind of series: Ligand-receptor binding assay, immobilized αvβ3. The settings on record: for preference of inhibition of fibrinogen binding, αvβ3 versus αIIbβ3: comparison of half-maximal concentrations of Table 2. The text has this:
(§1) Herein described is a method of identifying antagonists in a ligand-receptor binding assay in which the receptor is immobilized to a solid support and the ligand and antagonist are soluble. Also described is a ligand-receptor binding assay in which the ligand is immobilized to a solid support and the receptor and antagonists are soluble.
(§2) Briefly, selected purified integrins were separately immobilized in Titertek microtiter wells at a coating concentration of 50 nanograms (ng) per well. The purification of the receptors used in the ligand-receptor binding assays are well known in the art and are readily obtainable with methods familiar to one of ordinary skill in the art. After incubation for 18 hours at 4° C., nonspecific binding sites on the plate were blocked with 10 milligrams/milliliter (mg/ml) of bovine serum albumin (BSA) in Tris-buffered saline. […] Radiolabeled ligands were used at concentrations of 1 nM and binding was challenged separately with unlabeled synthetic peptides.
(§3) Following a three hour incubation, free ligand was removed by washing and bound ligand was detected by gamma counting. […] The IC50 data in micromoles (IC50 μM) are expressed as the average of duplicate data points±the standard deviation as shown in Table 2.

The target in the next series is T2, αIIbβ3 (Homo sapiens, UniProt P05106+P08514).
T2 construct: selected purified integrins were separately immobilized in Titertek microtiter wells
Kind of series: Ligand-receptor binding assay, immobilized αIIbβ3.
Description: as §1, §2, §3

Series [1] relates to bFGF-induced angiogenesis. The experiment in a line: CAM assay, growth factor-induced angiogenesis, intravenous application. The settings on record: for inhibition of formation of new blood vessels induced by bFGF: 250 μg/ml, 18 hours after bFGF treatment, FIG. 12; for reducing the number of branch points of new blood vessels: FIG. 26, in decreasing order of inhibition 14, 10, 9, 12, compared to bFGF control and compound 7; for anti-angiogenic properties (branch points): FIG. 27, 100 μg/embryo, compared to bFGF control and compound 16. It counts as in vivo, chick. As to the method: J. Pathol., 79:597 (1975). CAMs were prepared from chick embryos for subsequent induction of angiogenesis and inhibition thereof as described in Examples 4 and 5, respectively. Ten day old chick embryos were obtained from McIntyre Poultry (Lakeside, Calif.) and incubated at 37° C. with 60% humidity. A small hole was made through the shell at the end of the egg directly over the air sac with the use of a small crafts drill (Dremel, Division of Emerson Electric Co. Racine Wis.). A second hole was drilled on the broad side of the egg in a region devoid of embryonic blood vessels determined previously by candling the egg. […] A 1.0 centimeter (cm)×1.0 cm square window was cut through the shell over the dropped CAM with the use of a small model grinding wheel (Dremel). The small window allowed direct access to the underlying CAM.
Angiogenesis was induced by placing a 5 millimeter (mm)×5 mm Whatman filter disk (Whatman Filter paper No.1) saturated with Hanks Balanced Salt Solution (HBSS, GIBCO, Grand Island, N.Y.) or HBSS containing 150 nanograms/milliliter (ng/ml) recombinant basic fibroblast growth factor (bFGF) (Genzyme, Cambridge, Mass.) on the CAM of a 10-day chick embryo in a region devoid of blood vessels and the windows were latter sealed with tape. In other assays, 125 ng/ml bFGF was also effective at inducing blood vessel growth. For assays where inhibition of angiogenesis ws evaluated with intravenous injections of antagonists, angiogenesis was first induced with 1-2 μg/ml bFGF in fibroblast growth medium. Angiogenesis was monitored by photomicroscopy after 72 hours. CAMs were snap frozen, and 6 um cryostat sections were fixed with acetone and stained by immunofluorescence as described in Example 3C with 10 μg/ml of either anti-β1 monoclonal antibody CSAT or LM609.
For CAM preparations in which angiogenesis was induced with 1-2 μg/ml bFGF as previously described, synthetic peptides 69601 (control) and 66203 (SEQ ID NO: 5) were separately intravenously injected into CAM preparations 18 hours after bFGF induction of angiogenesis. The preparations were maintained for an additional 36-40 hours after which time the number of branch points were determined as previously described.
In other assays, peptide 85189 (SEQ ID NO: 15) was evaluated for inhibiting bFGF-induced angiogenesis in the CAM assay over a dosage range of 10 μg/embryo to 300 μg/embryo. The assay was performed as previously described.
In still further assays, peptide 85189 was compared to peptides 69601 and 66203 for anti-angiogenesis activity. The assay was performed as described above with the exception that 50 μg peptide were used.
The effectiveness of the different salt formulations of peptide 85189 was also evaluated in similar bFGF-induced CAM assays. The peptides were used at 100 μg/embryo. […] Untreated CAMs, labeled as “no cytokine” had approximately […] as many branch points as that seen with bFGF treatment, respectively 70 versus 190.
With the above-described protocol, the effect of MMP-2 fusion proteins, CTMMP-2(2-4), also referred to as CTMMP-2(445-467) and CTMMP-2(10-1), also referred to as CTMMP-2(274-637) was also evaluated. The assay was performed as previously described with the exception that 50 μg of fusion protein was administered to the bFGF-treated embryos. The effect of fusion protein treatment was assessed at 24 hours, 48 hours and 72 hours.
The 10 day old CAM preparation was used as previously described in Example 5A. Twenty-four hours after bFGF-induced angiogenesis was initiated, the organic peptidomimetics referred to as compounds 16 (81218), 17 (87292) and 18 (87293) were separately intravenously injected into the CAM preparation in a volume of 100 μl at a concentration of 1 mg/ml (100 μg/embryo) in 20% tetraglycol-PBS at pH 7.0. In parallel assays, compounds 7 (96112), 9 (99799), 10 (96229), 12 (112854) and 14 (96113) were similarly evaluated. […]

[2] abbreviates: radiolabeled fibrinogen, average of duplicate data points ± standard deviation, read-out: αvβ3 (IC50 μM).
Setting [3] is: radiolabeled fibrinogen, average of duplicate data points ± standard deviation, read-out: αIIbβ3 (IC50 μM).

T2 sequence (P08514 32-887 limits assumed): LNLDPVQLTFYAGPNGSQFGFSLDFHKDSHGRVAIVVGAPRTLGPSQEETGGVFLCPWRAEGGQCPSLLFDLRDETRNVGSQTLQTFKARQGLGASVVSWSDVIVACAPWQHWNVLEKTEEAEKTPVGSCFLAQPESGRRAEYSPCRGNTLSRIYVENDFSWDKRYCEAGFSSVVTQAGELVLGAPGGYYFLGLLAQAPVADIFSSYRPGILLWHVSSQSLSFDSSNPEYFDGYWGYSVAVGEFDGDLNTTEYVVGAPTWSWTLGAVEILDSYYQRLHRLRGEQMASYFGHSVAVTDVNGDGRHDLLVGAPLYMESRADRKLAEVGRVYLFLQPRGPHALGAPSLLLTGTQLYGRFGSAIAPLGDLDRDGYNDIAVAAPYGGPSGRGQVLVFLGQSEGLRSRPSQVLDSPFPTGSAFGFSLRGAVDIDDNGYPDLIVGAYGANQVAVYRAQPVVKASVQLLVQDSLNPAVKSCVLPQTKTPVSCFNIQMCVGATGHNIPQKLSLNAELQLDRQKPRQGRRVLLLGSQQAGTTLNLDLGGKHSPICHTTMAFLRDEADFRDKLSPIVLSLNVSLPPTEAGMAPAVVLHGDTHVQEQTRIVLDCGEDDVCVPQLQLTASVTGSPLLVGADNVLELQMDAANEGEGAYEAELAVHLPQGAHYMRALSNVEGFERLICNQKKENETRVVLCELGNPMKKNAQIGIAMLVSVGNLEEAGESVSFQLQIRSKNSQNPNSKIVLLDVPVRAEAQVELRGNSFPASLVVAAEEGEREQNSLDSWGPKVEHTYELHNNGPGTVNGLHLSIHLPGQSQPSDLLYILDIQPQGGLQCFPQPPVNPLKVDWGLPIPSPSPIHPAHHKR
T2 sequence (P08514 891-1039 partner limits assumed): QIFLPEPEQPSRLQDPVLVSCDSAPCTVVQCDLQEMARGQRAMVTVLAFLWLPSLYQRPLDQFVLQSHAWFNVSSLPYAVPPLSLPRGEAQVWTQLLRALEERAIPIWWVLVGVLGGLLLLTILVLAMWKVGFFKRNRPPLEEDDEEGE
T2 sequence (P05106 27-788): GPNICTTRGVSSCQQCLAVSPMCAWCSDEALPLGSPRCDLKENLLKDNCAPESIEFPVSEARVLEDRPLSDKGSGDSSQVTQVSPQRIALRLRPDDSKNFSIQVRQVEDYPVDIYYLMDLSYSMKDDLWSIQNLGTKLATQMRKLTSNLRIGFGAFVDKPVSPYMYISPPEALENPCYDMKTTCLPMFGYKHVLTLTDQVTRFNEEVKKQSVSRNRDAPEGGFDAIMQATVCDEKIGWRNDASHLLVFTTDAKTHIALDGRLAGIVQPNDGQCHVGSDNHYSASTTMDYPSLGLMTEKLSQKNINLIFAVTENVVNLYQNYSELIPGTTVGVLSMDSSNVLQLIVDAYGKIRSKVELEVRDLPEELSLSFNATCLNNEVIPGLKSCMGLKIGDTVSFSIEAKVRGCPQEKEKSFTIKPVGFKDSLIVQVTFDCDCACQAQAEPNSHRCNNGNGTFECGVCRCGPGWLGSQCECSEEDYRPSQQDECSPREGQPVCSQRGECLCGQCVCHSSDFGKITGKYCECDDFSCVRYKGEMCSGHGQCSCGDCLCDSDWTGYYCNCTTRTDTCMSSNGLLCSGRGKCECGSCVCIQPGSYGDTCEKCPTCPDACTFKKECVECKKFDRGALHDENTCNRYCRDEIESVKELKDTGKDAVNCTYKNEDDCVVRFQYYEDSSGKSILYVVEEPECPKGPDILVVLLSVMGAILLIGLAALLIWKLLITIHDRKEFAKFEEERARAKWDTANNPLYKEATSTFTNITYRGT
T1 sequence (P06756 31-889 limits assumed): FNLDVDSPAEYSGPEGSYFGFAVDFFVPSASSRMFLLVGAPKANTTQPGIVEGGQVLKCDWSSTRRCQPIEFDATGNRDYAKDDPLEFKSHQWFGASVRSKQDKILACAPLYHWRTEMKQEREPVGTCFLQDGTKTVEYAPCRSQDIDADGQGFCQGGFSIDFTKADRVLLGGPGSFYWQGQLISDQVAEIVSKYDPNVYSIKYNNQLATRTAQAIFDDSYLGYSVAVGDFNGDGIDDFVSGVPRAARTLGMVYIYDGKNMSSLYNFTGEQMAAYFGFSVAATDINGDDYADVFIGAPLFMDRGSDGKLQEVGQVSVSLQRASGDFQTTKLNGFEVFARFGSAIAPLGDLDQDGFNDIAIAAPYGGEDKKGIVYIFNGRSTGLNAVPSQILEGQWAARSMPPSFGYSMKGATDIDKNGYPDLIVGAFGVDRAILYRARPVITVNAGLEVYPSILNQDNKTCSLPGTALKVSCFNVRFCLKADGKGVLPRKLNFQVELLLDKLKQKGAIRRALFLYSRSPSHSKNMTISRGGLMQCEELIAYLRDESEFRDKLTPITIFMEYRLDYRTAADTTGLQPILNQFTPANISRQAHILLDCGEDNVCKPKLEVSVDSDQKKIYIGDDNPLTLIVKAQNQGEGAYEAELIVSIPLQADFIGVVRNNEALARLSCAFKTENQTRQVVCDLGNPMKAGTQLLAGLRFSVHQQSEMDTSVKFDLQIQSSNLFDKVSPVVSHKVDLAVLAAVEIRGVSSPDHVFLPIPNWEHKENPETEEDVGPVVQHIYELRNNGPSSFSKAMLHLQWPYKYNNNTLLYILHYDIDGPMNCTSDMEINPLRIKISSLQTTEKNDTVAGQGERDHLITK
T1 sequence (P06756 891-1048 partner limits assumed): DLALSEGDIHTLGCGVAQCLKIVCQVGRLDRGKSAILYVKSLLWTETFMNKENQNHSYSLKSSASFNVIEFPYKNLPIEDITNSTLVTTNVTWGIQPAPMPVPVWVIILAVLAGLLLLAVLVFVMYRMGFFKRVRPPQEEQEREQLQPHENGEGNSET
T1 sequence (P05106 27-788): as the sequence (P05106 27-788) above

Turning to `CSCC[C@H](NC(=O)[C@@H]1CCCN1C(=O)[C@H](CC(N)=O)NC(=O)CNC(=O)[C@H](CC(C)C)NC(=O)[C@H](CC(=O)O)NC(=O)[C@H](CS)NC(=O)[C@@H](NC(=O)[C@@H](NC(=O)[C@H](CCC(N)=O)NC(=O)[C@H](CCCNC(=N)N)NC(=O)[C@@H](N)[C@@H](C)O)C(C)C)C(C)C)C(=O)O` [Peptide 62411] (H-TRQVVCDLGNPM-OH), the 50% inhibitory concentration (IC50) (usually the midpoint of a concentration-inhibition curve) on αvβ3 is > 100 µM; at αIIbβ3 it was > 100 µM; on αIIbβ3 (read-out: αIIbβ3 IC50 (μM) VN, vitronectin, individual assay), > 100 µM.
Regarding `CC(C)[C@@H]1NC(=O)[C@@H](Cc2ccccc2)NC(=O)[C@H](CC(=O)O)NC(=O)[C@H](C)NC(=O)[C@H](CCCNC(=N)N)NC1=O` [Peptide 62185, cyclo (RADfV)] (cyclo(RAD[dF]V)), on αvβ3, the “preference of inhibition of fibrinogen binding, αvβ3 versus αIIbβ3” value (“preference of inhibition … αvβ3 versus αIIbβ3” for short) is “preferential inhibition of fibrinogen binding to the αvβ3 receptor”.
In the case of `CC(C)C[C@@H]1NC(=O)[C@@H](Cc2ccccc2)NC(=O)[C@H](CC(=O)O)NC(=O)CNC(=O)[C@H](CCCNC(=N)N)NC(=O)CNC1=O` [Peptide 62179, cyclo (GRGDfL)] (cyclo(GRGD[dF]L)), the “preference of inhibition … αvβ3 versus αIIbβ3” value on αvβ3 was “either not as effective in blocking fibrinogen binding to αvβ3 or exhibited preferential inhibition of fibrinogen binding to αIIbβ3”. Besides, the IC50 stood at 0.395 ± 0.21 µM on αvβ3 (setting [2]) and 0.055 ± 0.007 µM at αIIbβ3 (setting [3]).
`CCCCS(=O)(=O)N[C@H](Cc1ccc(OCCCCNC(=N)N)cc1)C(=O)O` [Compound 10]: the melting point (usually the temperature, or range, at which the solid turns liquid) was determined as 70 °C. In series [1], the “inhibition of formation of new blood vessels induced by bFGF” value is “almost completely inhibited” and the “reducing the number of branch points of new blood vessels” value (from here on “reducing the number”) is listed as “effective at reducing the number of branch points”.
In the case of `CC1(C)C2CCC1(CS(=O)(=O)N[C@@H](Cc1ccc(OCCCCNC(=N)N)cc1)C(=O)O)C(=O)C2` (some centres unmarked) [Compound 12], in series [1], the “reducing the number” value is “effective at reducing the number of branch points”.
On the same count and under the same terms, with `CC(C)(C)OC(=O)N[C@@H](Cc1ccc(OCCCCNC(=N)N)cc1)C(=O)O` [Compound 9] the entry was “effective at reducing the number of branch points”.
In the case of `CCCCS(=O)(=O)N[C@@H](Cc1ccc(OCCCCCNC(=N)N)cc1)C(=O)O` [Compound 14], in series [1], the “inhibition of formation of new blood vessels induced by bFGF” value is on record as “almost completely inhibited” and the “reducing the number” value is on record as “effective at reducing the number of branch points”.
In the case of `CC(C)[C@@H]1NC(=O)[C@H](Cc2ccccc2)NC(=O)[C@H](CC(=O)O)NC(=O)CNC(=O)[C@@H](CCCNC(=N)N)NC(=O)CNC1=O` [Peptide 62181, cyclo (GrGDFV)] (cyclo(G[dR]GDFV)), the “preference of inhibition … αvβ3 versus αIIbβ3” value on αvβ3 is “preferential inhibition of fibrinogen binding to the αvβ3 receptor”. Also, the IC50 came out at 1.96 ± 0.62 µM on αvβ3 (setting [2]) and 15 ± 7.84 µM at αIIbβ3 (setting [3]).
For the molecule `CC(C)C[C@@H]1NC(=O)[C@@H](Cc2ccccc2)NC(=O)[C@H](CC(=O)O)NC(=O)CNC(=O)[C@H](CCCNC(=N)N)NC(=O)[C@H](C)NC1=O` [Peptide 62175, cyclo (ARGDfL)] (cyclo(ARGD[dF]L)), the “preference of inhibition … αvβ3 versus αIIbβ3” value at αvβ3 is on record as “either not as effective in blocking fibrinogen binding to αvβ3 or exhibited preferential inhibition of fibrinogen binding to αIIbβ3”. Also, the IC50 at αvβ3 (setting [2]) was found to be 1.05 ± 0.07 µM; at αIIbβ3 (setting [3]), 0.63 ± 0.18 µM.
Take `CCS(=O)(=O)NC(Cc1ccc(OCC2CN(c3ccc(C(=N)N)cc3)C(=O)O2)cc1)C(=O)O` (centres unmarked) [Compound 18, 3-(4-amidinophenyl)-5-(4-(2-carboxy-2-N-ethyl-sulfonylaminoethyl)phenoxy)methyl-2-oxazolidinone]: in series [1], the “anti-angiogenic properties (branch points)” value is “exhibited anti-angiogenic properties”.
In the case of `CC(C)C[C@H](NC(=O)[C@H](C)NC(=O)[C@H](CCC(=O)O)NC(=O)[C@H](CC(N)=O)NC(=O)[C@H](CC(N)=O)NC(=O)[C@H](CCCNC(=N)N)NC(=O)[C@@H](NC(=O)[C@@H](NC(=O)CN)C(C)C)C(C)C)C(=O)N[C@@H](C)C(=O)N[C@@H](CCCNC(=N)N)C(=O)N[C@@H](CC(C)C)C(=O)N[C@@H](CO)C(=O)O` [Peptide 62503] (H-GVVRNNEALARLS-OH), the half-inhibitory concentration (IC50) on αvβ3 (fibrinogen, individual assay, read-out: αvβ3 IC50 (μM) FG) is > 100 µM; on αIIbβ3 (fibrinogen, individual assay, read-out: αIIbβ3 IC50 (μM) FG), > 100 µM; at αIIbβ3 (vitronectin, individual assay, read-out: αIIbβ3 IC50 (μM) VN), > 100 µM.
As for `CCCCS(=O)(=O)N[C@@H](Cc1ccc(OCCCCNC(=N)N)cc1)C(=O)O` [Compound 7], the melting point came to 70 °C.
For the molecule `CC(C)[C@@H]1NC(=O)[C@@H](Cc2ccccc2)NC(=O)[C@H](CC(=O)O)NC(=O)[C@H](C)NC(=O)[C@H](CCCN=C(N)N)NC1=O` [Peptide 62185, cyclo (RADfV)] (cyclo(AD[dF]VR)), the IC50 on αvβ3 (setting [2]) turned out to be 0.885 ± 0.16 µM; at αIIbβ3 (setting [3]), 100 ± 0.001 µM.
As for `CCCS(=O)(=O)NC(Cc1ccc(OCC2CN(c3ccc(C(=N)N)cc3)C(=O)O2)cc1)C(=O)O` (centres unmarked) [Compound 17, 3-(4-amidinophenyl)-5-(4-(2-carboxy-2-N-propyl-sulfonylaminoethyl)phenoxy)methyl-2-oxazolidinone], in series [1], the “anti-angiogenic properties (branch points)” value was “exhibited anti-angiogenic properties”.
For `Cl.Cl.N=C(N)c1ccc(N2CC(COc3ccc(CC(N)C(=O)O)cc3)OC2=O)cc1` (centres unmarked), the melting point was 165 °C (dec.).
